Measured values: patent publication US20060172941A1, “Anti-angiogenic peptides and methods of use thereof” (priority 2004, published 2006)
“Also recorded” adds a separate entry of the source. Where no end group is shown, it is not given here. [ ]: non-standard residue; d: D form.

How the values were obtained:
[1] = test system: Human Umbilical Vein Endothelial Cells; assay: bFGF-mediated survival/proliferation of human umbilical vein endothelial cells (WST1); assay type: cell-based; settings: FIG. 6, 9, 10, 17
Protocol: (§1) The anti-angiogenic activities of the peptides were tested by measuring the level of inhibition of VEGF and bFGF mediated survival/proliferation of Bovine Retinal Endothelial Cells (BRE), Human Dermal Microvasculature Endothelial Cells, and Human Umbilical Vein Endothelial Cells, all of which are standard cell lines used to test anti-angiogenic compounds.
Human umbilical cord endothelial (HUVEC) cells were maintained in Cambrex EGM-2MV media. On day one, cells were starved overnight in 1% FBS in M200 media (Cascade Biologicals). The morning after, the media were replaced with serum-free media (control) or media containing 25 ng/ml of human VEGF165 and the various peptides to final concentrations as described.
(§2) In all cases, after 72 hours incubation, the amount of live cells in each well was measured with the WST1 assay (Roche).

[2] = test system: tumor cells; assay: Ability to induce tumor cell death (general statement); assay type: cell-based
Protocol: Peptides to be tested were prepared at a stock concentration of 10 mM in sterile phosphate buffered saline. Cancer cell lines obtained from the American Type Culture Collection (MG-63, HT1080, A498, BxPC3, 786-0, PC-3, B16F1, B16F10, P388D1, Jurkat, MOLT4, THP-1, U-937, L1210, RPMI 8226, NCI H929, U266B1, K562) were cultured under appropriate conditions as described in the literature. Cell culture media and reagents were obtained from ATCC (Manassas, Va.), Invitrogen (Carlsbad, Calif.) or Mediatech (Herndon, Va.). Exponentially growing cultures were used for cell proliferation assays. […] After incubation, the relative number of cells was determined using WST-1 (Roche Applied Science). […] The plate was immediately read at 440 nm using a Bio-Tek PowerWave XS microplate reader, incubated for 2-3 hours at 37° C. and then read again. Cell proliferation was determined as the percent of the control cell proliferation. The absorbance of each well at time 0 was subtracted from the value of the final reading. […] Finally, each test absorbance was divided by the average of the control absorbances and multiplied by 100 to obtain the percent of control.

[3] = test system: RPMI-8226 human myeloma xenografts; assay: RPMI-8226 human myeloma subcutaneous xenograft model; assay type: in vivo, mouse; settings: scid mice, FIG. 16
Protocol: Anti-tumor efficacy of test peptides was evaluated against RPMI-8226 human myeloma xenografts implanted subcutaneously (sc) in severe compromised immunodeficient (scid) mice.
Studies generally consisted of randomly-assigned groups of 8 or 10 mice per group, which were implanted sc with myeloma fragments (30-40 mg). In addition to groups tested with test peptides, studies usually included a vehicle-treated control group and a positive control group treated with an agent known to be active in the RPMI-8226 model. In one type of schedule, mice were treated IP with either vehicle or test peptides starting one day after tumor implantation (implantation day defined as Day 0). Test peptides and vehicle were generally administered IP daily for 3-4 weeks.
Dosing solutions of the test peptides were prepared weekly and kept at −20° C. between injections. […] Each tumor was measured by caliper in two dimensions and converted to tumor mass using the formula for a prolate ellipsoid (a X b^2/2), where a is the longer dimension and b is the smaller dimension, and assuming unit density (1 mm^3=1 mg). Tumor measurements were recorded twice weekly. Body weights were also recorded twice weekly. Anti-tumor activity was assessed by the delay in tumor growth of the treated groups in comparison to the vehicle-treated control group, partial and complete regressions, and tumor-free survivors. […]

[4] = test system: L1210 murine leukemia cells; assay: L1210 murine leukemia intravenous model, survival; assay type: in vivo, mouse; settings: dosed IP, FIG. 15a
Protocol: Antitumor activity of test peptides, administered intraperitoneally (IP), were evaluated against L1210 murine leukemia cells implanted intravenously (IV) in DBA/2 mice.
Studies generally consisted of randomly-assigned groups of 8 mice per group, which were inoculated IV with 1×10^5 cells per mouse from an in vivo leukemia cell line. In addition to groups tested with test peptides, studies usually included a vehicle-treated control group and a positive control group treated with an agent known to be active in the L1210 leukemia model. Starting one day after tumor inoculation (inoculation day defined as Day 0), mice were treated IP with either vehicle or test peptides in various schedules. Generally this consisted of treatment every other day for approximately 1 week (e.g., Days 1, 3, 5 and 7). A positive agent (e.g., cyclophosphamide) was usually given as a single IP injection on Day 1. All dosing solutions were prepared on each day of treatment. Survival was monitored daily and body weights were measured twice weekly. Anti-tumor activity was assessed by the increase in lifespan of the treated groups in comparison to the vehicle-treated control group. Studies with the L1210 leukemia model were limited to 30 days.

[5] = test system: L1210; assay: Tumor cell proliferation (WST-1), L1210; assay type: cell-based, mouse; settings: FIG. 11
Protocol: Peptides to be tested were prepared at a stock concentration of 10 mM in sterile phosphate buffered saline. Cancer cell lines obtained from the American Type Culture Collection (MG-63, HT1080, A498, BxPC3, 786-0, PC-3, B16F1, B16F10, P388D1, Jurkat, MOLT4, THP-1, U-937, L1210, RPMI 8226, NCI H929, U266B1, K562) were cultured under appropriate conditions as described in the literature. Cell culture media and reagents were obtained from ATCC (Manassas, Va.), Invitrogen (Carlsbad, Calif.) or Mediatech (Herndon, Va.). Exponentially growing cultures were used for cell proliferation assays. Adherent cells were plated at a concentration of 100000 cells per milliter in growth media overnight (18-24 h) and treated the next day in a low serum media (growth media with 1% FBS for MG-63, HT1080, A498, BxPC3, PC-3, B16F1, B16F10. 786-0 cells were treated in media with 5% FBS). Suspension cell lines (P388D1, Jurkat, MOLT4, THP-1, U-937, L1210, RPMI 8226, NCI H929, U266B1, and K562) were diluted to a concentration of 100,000 cells per ml and treated on the same day with peptides. Peptides were diluted in treatment media and cells were treated for 48 or 72 hours depending on the cell line. Each dose was tested in triplicate for each experiment, and experiments were repeated for a minimum of three discrete times. After incubation, the relative number of cells was determined using WST-1 (Roche Applied Science). A 9.5 μl aliquot of WST-1 was added to each well. The plate was immediately read at 440 nm using a Bio-Tek PowerWave XS microplate reader, incubated for 2-3 hours at 37° C. and then read again. Cell proliferation was determined as the percent of the control cell proliferation. The absorbance of each well at time 0 was subtracted from the value of the final reading. Afterwards the blank values were averaged and subtracted from each test and control value. Finally, each test absorbance was divided by the average of the control absorbances and multiplied by 100 to obtain the percent of control. […]

[6] = Heparin binding activity, Hi Trap Heparin HP column, NaCl step elution; settings: for [NaCl] for elution: heparin column, step gradient in 10 mM NaH2PO4 pH 7
Source text: Liquid chromatography was used to determine the relative levels of heparin binding activity of the individual heparin binding domains and of the anti-angiogenic miniproteins that contains them. In this assay, the strength of the heparin binding activity is proportional to the amount of NaCl that is required to elute the peptide bound to the heparin column. Peptides with low binding activity are eluted with lower NaCl concentration, whereas higher concentrations of NaCl are required for peptides with higher binding activity.
Hi Trap Heparin HP column (1 ml, Amersham Biosciences) was equilibrated with 10 column volumes (CV) of equilibration (EQ) buffer=10 mM NaH2PO4 pH 7. All buffers were loaded onto columns via syringes. 500 μl fractions are collected (flow rate=1 ml/minute). 500 μg of peptide (1 mg/ml, resuspended in EQ buffer) was added to each column and the flow through was collected for analysis. The columns were then washed with 3 CV of EQ buffer. Peptides are then eluted with a step gradient of 500, 625, 750, 875 mM NaCl in EQ buffer, 2 CV per each step. A final step of 3 CV of 1000 mM NaCl in EQ buffer was collected in 500 μl fractions. The A210 nm was measured using EQ and elution buffers as blanks.

[7] = Biological activity of D-amino acid versions of ST100,038 (test not specified); settings: tested against a control
Protocol: D-amino acid peptides can be made by generating a D-amino acid peptide with the same sequence as a L-amino acid peptide or by preparing a retro inverso form of a peptide. ST100,045 (SEQ ID NO.: 31) has the same sequence as ST100,038 (SEQ ID NO.: 29) was tested against ST100,059 (SEQ ID NO.: 30) which is the retro inverso version of ST100,038 and a control.

[8] = test system: B16-F1 melanoma cells; assay: Subcutaneous B16 melanoma tumor growth in vivo; parameters: species or system mouse; settings: 20 mg/kg daily IP; for Inhibition of tumor growth: vs untreated controls, FIG. 12 and 14
Protocol: Because of the importance of the angiogenic process for tumorigenesis, miniproteins as described herein, were hypothesized to show good anti-tumor activity. The peptides of the invention were tested in an in vivo model of anti-tumor activity. This model compares the growth of subcutaneous B16 melanoma tumor in vivo either untreated or treated with various amount of miniproteins described in this application. This model is widely accepted in the art as a model to test the anti-tumor activity of compounds that inhibit tumor growth because they have anti-angiogenic activity.
Male C57BL/6 mice were obtained with a mean body weight of 20±2 g. Mouse B16-F1 melanoma cells were implanted subcutaneously (5×10^5 cell per animal). Peptides (formulated in water) were administered ip daily at the amount indicated starting the day after cells injection. In general, tumors became palpable around 9 days after injection of cells. Tumor were then measured every 2 days.

[9] = test system: Bovine Retinal Endothelial Cells (BRE); assay: VEGF-mediated survival/proliferation of bovine retinal endothelial cells (WST1); assay type: cell-based; settings: VEGF 25 ng/ml, 72 hours, FIG. 4 and 5
Protocol: as §1
Bovine retinal endothelial (BRE) cells were maintained in Cambrex EG2 media. For non-adherent cell assays, on day one cells were starved for either 6 hours or overnight, then trypsinized and plated in 96-well plates in 100 μl of Optimem plus 1% fetal bovine serum (FBS). One hundred μl of Optimem plus 1% FBS was added to the wells containing, where appropriate, VEGF to a final concentration of 25 ng/ml, and the various peptides to final concentrations as described. For adherent cells, cells were plated in 96-well plates in complete media, allowed to adhere overnight, washed in starvation media (Optimem plus 1% FBS) and then starved during the day. At the end of the day, 100 μl of Optimem plus 1% FBS was added to the wells containing, where appropriate, VEGF to a final concentration of 25 ng/ml and the various peptides to final concentrations as described.
as §2

[10] = test system: Human Dermal Microvasculature Endothelial Cells; assay: bFGF-mediated survival/proliferation of human dermal microvasculature endothelial cells; assay type: cell-based; settings: 30, 100, and 200 μg/ml, FIG. 8
Protocol: as §1, §2
(§3) In a further experiment, the anti-angiogenic activity of peptide ST100,061 (SEQ ID NO.: 3), a derivative of ST100,032 (SEQ-ID NO.: 1), at concentrations of 30, 100, and 200 μg/ml was tested by measuring the level of inhibition of VEGF and bFGF mediated survival/proliferation in human dermal microvasculature endothelial cells.

[11] = test system: Human Dermal Microvasculature Endothelial Cells; assay: VEGF-mediated survival/proliferation of human dermal microvasculature endothelial cells; assay type: cell-based; settings: 30, 100, and 200 μg/ml, FIG. 8
Protocol: as §1, §2, §3

Sequence | Inhibition of bFGF-mediated survival [1] | Inhibition of proliferation of mouse leukemia L1210 cells [5] | [NaCl] for elution [6] [mM] | biological activity [7] | Inhibition of tumor growth [8] | further results
RRGRAARRGRAAKKKRLGYVVSDGRGDYP [ST100,064, retro-inverso form of ST100,061] | can inhibit bFGF mediated survival as effectively as ST100,061; also recorded: the most active in inhibiting bFGF stimulation | able to block cell proliferation and induce cell death | 875 | – | – | ability to induce tumor cell death (comparison in words) [2]: much more active; Inhibition of tumor growth ([3]; 25 mg/kg daily IP): able to inhibit tumor growth; Survival ([4]; DBA/2 mice): statistically significant increases in survival; mice (cured mice) that survived longer than 30 days [4]: Sixty to eighty; heparin binding activity (comparison in words) [6]: much more active; also recorded: bind less strongly than ST100,082
RRGRAARRGRAAKKK (listed as Homo sapiens) [ST100,078] | not as potent | Neither ST100,077 (SEQ ID NO.: 16) encoding the integrin binding domain or ST100,078 (SEQ ID NO.: 17) encoding the heparin binding domain or the simple combination of the two peptides (ST100,077 and ST100,078) blocked cell proliferation or induced cell death | 875 | – | – | –
ATSLPPHSSQSP (also: D-amino acids noted, form not shown; listed as Homo sapiens) [ST100,045] | – | – | – | Only the retro inverso form of ST100,038, (ST100,059; SEQ ID NO.: 30) was found to be biologically active | – | –
PSQSSHPPLSTA ([dP][dS][dQ][dS][dS][dH][dP][dP][dL][dS][dT][dA]; listed as Homo sapiens) [ST100,059, retro inverso version of ST100,038] | – | – | 0 | biologically active | clearly inhibit tumor growth | P (ANOVA) of tumor growth inhibition ([8]; FIG. 12): < 0.05; Inhibition of tumor growth ([3]; 100 mg/kg daily IP): does not inhibit tumor growth; Inhibition of VEGF-mediated survival/proliferation [9]: VEGF stimulation was inhibited with increasing doses
PYDGRGDSVVYGLRKKKAARGRRAARGRR (listed as Homo sapiens) [ST100,061] | – | – | – | – | may be less active | Inhibition of bFGF mediated survival/proliferation [10]: effective in inhibiting both VEGF and bFGF; Inhibition of VEGF mediated survival/proliferation [11]: effective in inhibiting both VEGF and bFGF
RLGYVVSDGRGDYP (listed as Homo sapiens) [ST100,077] | – | Neither ST100,077 (SEQ ID NO.: 16) encoding the integrin binding domain or ST100,078 (SEQ ID NO.: 17) encoding the heparin binding domain or the simple combination of the two peptides (ST100,077 and ST100,078) blocked cell proliferation or induced cell death | – | – | – | –
